The source of these data is patent US20240139198A1, “METHOD AND COMBINATION FOR TREATING TUMORS” (CURON BIOPHARMACEUTICAL (SHANGHAI) CO., LIMITED, priority 2021, published 2024).

One assay has as its system A20 cells. In words: A20 mouse B-cell lymphoma animal model, tumor growth in Balb/c mice. It is filed as in vivo. As to the method:
The animal experiment was carried out in accordance with the requirements of AAALAC, and was approved by Bikai Animal Experiment Center IACUC to conduct. 6-8 week-old Balb/c mice (16-20 grams) were purchased from Beijing Weitong Lihua Experimental Animal Technology Co., Ltd. Each mouse was subcutaneously inoculated with 500,000 A20 cells, and inoculated on the right rear side of the back of the mouse. When the volume of the tumor grew to about 60mm^3, the mice were randomly assigned to the control group and the experimental group.
Mice were euthanized whnmorbidity or weightloss>20% was observed. Tumors were measured with a caliper twice weekly until final sacrifice. When a tumor size reached approximately 2000 mm^3 or there were animal health issues (20% area of a tumor ulcerated), the animals would be euthanized an date of death recorded. Solid tumor volumes were estimated from two dimensional tumor measurements and calculated according to the following equation:
Tumor volume (mm 3)=[length(mm)×width2 (mm 2)]/2
The percent median regression for a group at a given day was then obtained by taking the median of the individual percent regression calculated for each animal of the group at this day. The day of calculation was determined on the day when ΔT/ΔC (i.e., the ratio of medians of tumor volume changes from baseline between the treated and control groups)was calculated, except when median percent regression was not representative of the activity of the group. In that case, the day was determined on the first day when the median percent regression was maximal. Regressions were defined as partial (PR) if the tumor volume decreased to 50% of the tumor volume at the start of treatment. Complete regression (CR) was considered to have been achieved when tumor volume was below 14 mm^3 or could not be recorded. • RTV: Relative Tumor Volume. RTV=Vt/V0∘ Vt: Tumor volume at the end of an experimental period (treatment group). V0: tumor volume at the beginning of the experiment • TGI: Tumor Growth Inhibition value. TGI=[1−RTV(experimental group)/RTV(control group)]*100%
A two-way ANOVA type with factors treatment an day(repeated) was performed on tumor volume changes from baseline. In case of significant treatment day interaction or treatment effects, it was followed by a contrast analysis with Bonferroni-Holm correction for multiplicity to compare all treated groups to the control group at each day from day 8 to 27. Tumor volume changes from baseline were calculated for each animal and each day by subtracting the tumor volume on the day of first treatment from the tumor volume on the specified observation day. As heterogeneity of variances was observed between groups, the compound symmetric(CS) covariance structure with group=option was chosen for the ANOVA type model (SAS Institute Inc. (2008) SAS/STAT 9.2User′s Guide by CaryNC). All statistical analyses were performed using SAS version v9.2 software. A probability less than 5% (p<0.05).
6-8 weeks old balb/c mice (18-20 g) were purchased from Beijing Weitong Lihua Experimental Animal Technology Co., Ltd., and each mouse was subcutaneously inoculated with 500,000 A20 cells on the right rear side of the mouse's back. Treatment was initiated when tumors grew to a volume of approximately 62 mm^3. CN401 was orally administered at 150 mg/kg twice a day for 3 weeks.
CN202 was administered by intraperitoneal injection, 3 times a week at a dose of 5 mg/kg for 3 weeks. The control group was treated with vehicle (0.5% MC and PBS) without active product. Tumor size and body weight were measured three times a week. This animal experiment was carried out in accordance with the requirements of AAALAC, and was approved by Bikai Animal Experiment Center IACUC to conduct this animal experiment.
Referring to the experimental method of Example 1.1, the difference is that the dosage of CN202 is replaced by 15 mg/kg from 5 mg/kg. […]

In assay [1] the test system is EMT-6 cells (mouse triple-negative breast cancer cells). Type of assay: in vivo. The following applies: Example 4, CN401 150 mg/kg oral, twice a week × 4 week (Table 12). Here is the method: Tumors were measured with a caliper twice weekly until final sacrifice. […] Solid tumor volumes were estimated from two dimensional tumor measurements and calculated according to the following equation: […]

For `Cc1nc(NC(=O)N2CCC[C@H]2C(N)=O)sc1-c1ccnc(C(C)(C)C(F)(F)F)c1` [Alpelisib, (2S)-1-N-[4-methyl-5-[2-(1,1,1-trifluoro-2-methylpropan-2-yl)pyridin-4-yl]-1,3-thiazol-2-yl]pyrrolidine-1,2-dicarboxamide, reference compound], the “CR(Number of mice with tumor regression/total amount of mice in each group)” value with A20 cells (Example 2.2, Alpelisib 50 mg/kg p.o. qd × 3 weeks, day 21) is 0/7. In the assay on A20 cells (Example 2.2, Alpelisib 50 mg/kg p.o. qd × 3 weeks, day 21 vs vehicle control, p=0.161), this compound came in with a TGI % of 37%.
For `CC[C@H](Nc1ncnc2nc[nH]c12)c1oc2ccccc2c(=O)c1-c1cccc(F)c1` [CN401, (S)-2-(1-(9H-purin-6-ylamino)propylgroup)-3-(3-fluorophenyl)-4H-chromen-4-one], the “CR(Number of mice with tumor regression/total amount of mice in each group)” value in the assay with A20 cells (Example 1.1, CN401 150 mg/kg p.o. bid × 3 weeks, day 22) is on record as 2/8; with A20 cells (Example 1.2, CN401 150 mg/kg p.o. bid × 3 weeks, day 22), 2/8; in the assay with A20 cells (Example 2.1, CN401 150 mg/kg p.o. bid × 3 weeks, day 22), 0/7; with A20 cells (Example 3, CN401 150 mg/kg p.o. bid × 3 weeks, day 22), 2/8; in assay [1] (observed up to 80 days), 0/8. For the same compound, the TGI % in the assay on A20 cells (Example 1.1, CN401 150 mg/kg p.o. bid × 3 weeks, day 22 vs vehicle control, p=0.034) is listed as 55%; with A20 cells (Example 1.2, CN401 150 mg/kg p.o. bid × 3 weeks, day 22 vs vehicle control, p=0.034) it was 55%; in the assay on A20 cells (Example 2.1, CN401 150 mg/kg p.o. bid × 3 weeks, day 22 vs vehicle control, p=0.028) it was 45%; with A20 cells (Example 3, CN401 150 mg/kg p.o. bid × 3 weeks, day 22 vs vehicle control, p=0.034), 55%; in assay [1] (14th day vs vehicle control, p=0.87) it was 3%.
On to “Anti-PD-L1 Ab: Anti-PD-L1 antibody (Atezolizumab), CAS Number: 1380723-44-3 [reference compound]”, for which the “CR(Number of mice with tumor regression/total amount of mice in each group)” value with A20 cells (Example 3, anti-PD-L1 Ab (atezolizumab) 5 mg/kg i.p. biw × 3 weeks, day 22) is reported as 0/8. Also, in the assay with A20 cells (Example 3, anti-PD-L1 Ab (atezolizumab) 5 mg/kg i.p. biw × 3 weeks, day 22 vs vehicle control, p=0.57), the TGI % turned out to be 15%.
